Source: ChEMBL document CHEMBL3885881, “DrugMatrix”
Several values for one entry are separate records, joined by “and”; a condition that tells them apart may be missing. Equal entries are not always repeated.

Species on record: Rattus norvegicus
Assay: DrugMatrix - Regimen: Daily Repeat
Format: toxicity, organism-based, Sprague-Dawley
Parameters: regimen Daily Repeat, gender Male, age 6-8 weeks
Conditions: in vivo, iv; for ABSOLUTE BASOPHIL / ABSOLUTE EOSINOPHIL / ABSOLUTE LYMPHOCYTE / ABSOLUTE MONOCYTE / ABSOLUTE SEGMENTED NEUTROPHIL / BASOPHIL / EOSINOPHIL / ERYTHROCYTE COUNT / HEMATOCRIT / HEMOGLOBIN / LEUKOCYTE COUNT / LYMPHOCYTE / MEAN CORPUSCULAR HEMOGLOBIN / MEAN CORPUSCULAR HEMOGLOBIN CONCENTRATION / MEAN CORPUSCULAR VOLUME / MONOCYTE / NEUTROPHIL / NUCLEATED RED BLOOD CELLS / PLATELET COUNT: tissue Blood; for ALANINE AMINOTRANSFERASE / ALBUMIN / ALKALINE PHOSPHATASE / ASPARTATE AMINOTRANSFERASE / BLOOD UREA NITROGEN / CARBON DIOXIDE / CHLORIDE / CHOLESTEROL / CREATINE PHOSPHOKINASE / CREATININE / GLUCOSE / LACTATE DEHYDROGENASE / LIPASE / PHOSPHORUS / POTASSIUM / SODIUM / TOTAL BILIRUBIN / TOTAL PROTEIN / URIC ACID: tissue Plasma
[1] = 0 mg/kg, 72 h, dose level Control, time 3 day, vehicle 100 % SALINE
[2] = 0 mg/kg, 120 h, dose level Control, time 5 day, vehicle 10 % DMSO/SALINE
[3] = 0 mg/kg, 120 h, dose level Control, time 5 day, vehicle 100 % SALINE
[4] = 0 mg/kg, […], dose level Control, time 14 day, vehicle 100 % SALINE
[5] = 4 mg/kg, 120 h, dose level High, time 5 day, vehicle 10 % DMSO/SALINE

CC(=O)[C@]1(O)Cc2c(O)c3c(c(O)c2[C@@H](O[C@H]2C[C@H](N)[C@H](O)[C@H](C)O2)C1)C(=O)c1ccccc1C3=O [IDARUBICIN]
ABSOLUTE BASOPHIL [1]: 0 CELLS/uL | ABSOLUTE EOSINOPHIL [1]: 247.67 CELLS/uL | ABSOLUTE LYMPHOCYTE [1]: 13190.83 CELLS/uL | ABSOLUTE MONOCYTE [1]: 307.67 CELLS/uL | ABSOLUTE SEGMENTED NEUTROPHIL [1]: 1220.5 CELLS/uL | BASOPHIL [1]: 0% | EOSINOPHIL [1]: 1.67% | ERYTHROCYTE COUNT [1]: 5.47 x10E6/uL | HEMATOCRIT [1]: 33.98% | HEMOGLOBIN [1]: 12.65 G/DL | LEUKOCYTE COUNT [1]: 14.97 x10E3/uL | LYMPHOCYTE [1]: 88.17% | MEAN CORPUSCULAR HEMOGLOBIN [1]: 23.17 pg | MEAN CORPUSCULAR HEMOGLOBIN CONCENTRATION [1]: 37.23 G/DL | MEAN CORPUSCULAR VOLUME [1]: 62.25 fL | MONOCYTE [1]: 2% | NEUTROPHIL [1]: 8.17% | NUCLEATED RED BLOOD CELLS [1]: 0 /100WBC | PLATELET COUNT [1]: 1307.17 x10E3/uL | ALANINE AMINOTRANSFERASE [1]: 39.67 u/L | ALBUMIN [1]: 4.08 G/DL | ALKALINE PHOSPHATASE [1]: 383.17 u/L | ASPARTATE AMINOTRANSFERASE [1]: 88.83 u/L | BLOOD UREA NITROGEN [1]: 18.5 mg/dL | CARBON DIOXIDE [1]: 27.5 mmol/L | CHLORIDE [1]: 103 MEQ/L | CHOLESTEROL [1]: 67.33 mg/dL | CREATINE PHOSPHOKINASE [1]: 414.67 u/L | CREATININE [1]: 0.19 mg/dL | GLUCOSE [1]: 149.33 mg/dL | LACTATE DEHYDROGENASE [1]: 536.83 u/L | LIPASE [1]: 8.83 u/L | PHOSPHORUS [1]: 11.13 mg/dL | POTASSIUM [1]: 6.23 MEQ/L | SODIUM [1]: 144.42 MEQ/L | TOTAL BILIRUBIN [1]: 0.18 mg/dL | TOTAL PROTEIN [1]: 5.57 G/DL | URIC ACID [1]: 1.23 mg/dL | BASOPHIL [2]: 0.28% | EOSINOPHIL [2]: 0.55% | ERYTHROCYTE COUNT [2]: 7.09 x10E6/uL | HEMATOCRIT [2]: 45.85% | HEMOGLOBIN [2]: 14.93 G/DL | LEUKOCYTE COUNT [2]: 7.4 x10E3/uL | LYMPHOCYTE [2]: 84.22% | MEAN CORPUSCULAR HEMOGLOBIN [2]: 21.05 pg | MEAN CORPUSCULAR HEMOGLOBIN CONCENTRATION [2]: 32.5 G/DL | MEAN CORPUSCULAR VOLUME [2]: 64.72 fL | MONOCYTE [2]: 1.4% | NEUTROPHIL [2]: 12.45% | PLATELET COUNT [2]: 1476.75 x10E3/uL | ABSOLUTE SEGMENTED NEUTROPHIL [3]: 1104.67 CELLS/uL | BASOPHIL [3]: 1.05% and 0% | EOSINOPHIL [3]: 0.23% and 1% | ERYTHROCYTE COUNT [3]: 6.68 x10E6/uL and 5.73 x10E6/uL | HEMATOCRIT [3]: 42.27% and 36.85% | HEMOGLOBIN [3]: 13 G/DL and 13.67 G/DL | LEUKOCYTE COUNT [3]: 19.36 x10E3/uL and 15.13 x10E3/uL | LYMPHOCYTE [3]: 62.82% and 89.5% | MEAN CORPUSCULAR HEMOGLOBIN [3]: 19.43 pg and 23.87 pg | MEAN CORPUSCULAR HEMOGLOBIN CONCENTRATION [3]: 30.68 G/DL and 37.1 G/DL | MEAN CORPUSCULAR VOLUME [3]: 63.25 fL and 64.33 fL | MONOCYTE [3]: 3.45% and 2.33% | NUCLEATED RED BLOOD CELLS [3]: 0.17 /100WBC | PLATELET COUNT [3]: 1275.5 x10E3/uL and 1266 x10E3/uL | ALANINE AMINOTRANSFERASE [2]: 21.25 u/L | ALBUMIN [2]: 4.28 G/DL | ALKALINE PHOSPHATASE [2]: 337.5 u/L | ASPARTATE AMINOTRANSFERASE [2]: 87.25 u/L | BLOOD UREA NITROGEN [2]: 13 mg/dL | CARBON DIOXIDE [2]: 27 mmol/L | CHLORIDE [2]: 106.75 MEQ/L | CHOLESTEROL [2]: 54.5 mg/dL | CREATINE PHOSPHOKINASE [2]: 424.75 u/L | CREATININE [2]: 0.47 mg/dL | GLUCOSE [2]: 135.75 mg/dL | LACTATE DEHYDROGENASE [2]: 200.25 u/L | LIPASE [2]: 9 u/L | PHOSPHORUS [2]: 11.62 mg/dL | POTASSIUM [2]: 5.58 MEQ/L | SODIUM [2]: 150.5 MEQ/L | TOTAL BILIRUBIN [2]: 0.25 mg/dL | TOTAL PROTEIN [2]: 6.33 G/DL | URIC ACID [2]: 1.75 mg/dL | ALANINE AMINOTRANSFERASE [3]: 62.75 u/L and 49.17 u/L | ALBUMIN [3]: 3.2 G/DL and 4.22 G/DL | ALKALINE PHOSPHATASE [3]: 320.75 u/L and 352.67 u/L | ASPARTATE AMINOTRANSFERASE [3]: 112.25 u/L and 95.17 u/L | BLOOD UREA NITROGEN [3]: 14.25 mg/dL and 18.83 mg/dL | CARBON DIOXIDE [3]: 36.25 mmol/L and 25.67 mmol/L | CHLORIDE [3]: 106.25 MEQ/L and 102.67 MEQ/L | CHOLESTEROL [3]: 63.5 mg/dL and 66.83 mg/dL | CREATINE PHOSPHOKINASE [3]: 757.75 u/L and 550.33 u/L | CREATININE [3]: 0.23 mg/dL | GLUCOSE [3]: 175.5 mg/dL and 186.17 mg/dL | LACTATE DEHYDROGENASE [3]: 205.25 u/L and 471.33 u/L | PHOSPHORUS [3]: 11.35 mg/dL and 12.3 mg/dL | POTASSIUM [3]: 6.7 MEQ/L and 6.35 MEQ/L | SODIUM [3]: 151.25 MEQ/L and 143.57 MEQ/L | TOTAL BILIRUBIN [3]: 0.2 mg/dL and 0.18 mg/dL | TOTAL PROTEIN [3]: 5.78 G/DL and 6.05 G/DL | URIC ACID [3]: 1.23 mg/dL and 2 mg/dL | ABSOLUTE BASOPHIL [4]: 400 cells/µL | ABSOLUTE EOSINOPHIL [4]: 46.7 cells/µL | ABSOLUTE LYMPHOCYTE [4]: 18600 cells/µL | ABSOLUTE MONOCYTE [4]: 760 cells/µL | BASOPHIL [4]: 1.73% | EOSINOPHIL [4]: 0.2% | ERYTHROCYTE COUNT [4]: 7.04 x10E6/uL | HEMATOCRIT [4]: 41.83% | HEMOGLOBIN [4]: 13.07 G/DL | LEUKOCYTE COUNT [4]: 24.9 x10E3/uL | LYMPHOCYTE [4]: 74.43% | MEAN CORPUSCULAR HEMOGLOBIN [4]: 18.63 pg | MEAN CORPUSCULAR HEMOGLOBIN CONCENTRATION [4]: 31.33 G/DL | MEAN CORPUSCULAR VOLUME [4]: 59.43 fL | MONOCYTE [4]: 3.13% | NEUTROPHIL [4]: 18.97% | PLATELET COUNT [4]: 1314.33 x10E3/uL | ALANINE AMINOTRANSFERASE [4]: 42.67 u/L | ALBUMIN [4]: 3.6 G/DL | ALKALINE PHOSPHATASE [4]: 298 u/L | ASPARTATE AMINOTRANSFERASE [4]: 67.33 u/L | BLOOD UREA NITROGEN [4]: 14.33 mg/dL | CARBON DIOXIDE [4]: 41.67 mmol/L | CHLORIDE [4]: 102.67 MEQ/L | CHOLESTEROL [4]: 62.67 mg/dL | CREATINE PHOSPHOKINASE [4]: 338.67 u/L | CREATININE [4]: 0.7 mg/dL | GLUCOSE [4]: 147.33 mg/dL | LACTATE DEHYDROGENASE [4]: 94.33 u/L | LIPASE [4]: 80 u/L | PHOSPHORUS [4]: 9.6 mg/dL | POTASSIUM [4]: 6.67 MEQ/L | SODIUM [4]: 148 MEQ/L | TOTAL BILIRUBIN [4]: 0.2 mg/dL | TOTAL PROTEIN [4]: 6.67 G/DL | URIC ACID [4]: 1.03 mg/dL | BASOPHIL [5]: 0.8% | EOSINOPHIL [5]: 2.95% | ERYTHROCYTE COUNT [5]: 7.46 x10E6/uL | HEMATOCRIT [5]: 47.3% | HEMOGLOBIN [5]: 15.42 G/DL | LEUKOCYTE COUNT [5]: 0.0975 x10E3/uL | LYMPHOCYTE [5]: 69% | MEAN CORPUSCULAR HEMOGLOBIN [5]: 20.73 pg | MEAN CORPUSCULAR HEMOGLOBIN CONCENTRATION [5]: 32.67 G/DL | MEAN CORPUSCULAR VOLUME [5]: 63.45 fL | MONOCYTE [5]: 1.3% | NEUTROPHIL [5]: 23.9% | PLATELET COUNT [5]: 879.25 x10E3/uL | ALANINE AMINOTRANSFERASE [5]: 11.75 u/L | ALBUMIN [5]: 2.88 G/DL | ALKALINE PHOSPHATASE [5]: 156 u/L | ASPARTATE AMINOTRANSFERASE [5]: 63.5 u/L | BLOOD UREA NITROGEN [5]: 18 mg/dL | CARBON DIOXIDE [5]: 25 mmol/L | CHLORIDE [5]: 112 MEQ/L | CHOLESTEROL [5]: 152.75 mg/dL | CREATINE PHOSPHOKINASE [5]: 475.25 u/L | CREATININE [5]: 0.5 mg/dL | GLUCOSE [5]: 116.5 mg/dL | LACTATE DEHYDROGENASE [5]: 183.5 u/L | LIPASE [5]: 13 u/L | PHOSPHORUS [5]: 9.47 mg/dL | POTASSIUM [5]: 5.03 MEQ/L | SODIUM [5]: 151 MEQ/L | TOTAL BILIRUBIN [5]: 0.2 mg/dL | TOTAL PROTEIN [5]: 4.57 G/DL | URIC ACID [5]: 1.45 mg/dL
